Results published in PubChem BioAssay (NCI).
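Each compound was tested at five concentrations against cells in 96-well plates for 48 hours. TGI marks complete inhibition of growth.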

Columns and labels:
Experiment in all cases: NCI-60 cell line screen, 48 h
OVCAR-3 ovarian = test system: OVCAR-3 ovarian
NCI-H460 lung = test system: NCI-H460 lung
MDA-MB-231 breast = test system: MDA-MB-231 breast
SK-MEL-2 melanoma = test system: SK-MEL-2 melanoma
HOP-92 NSCLC = test system: HOP-92 NSCLC
BT-549 breast = test system: BT-549 breast
HT29 colon = test system: HT29 colon
ACHN renal = test system: ACHN renal
IGROV1 ovarian = test system: IGROV1 ovarian
DU-145 prostate = test system: DU-145 prostate
MDA-N = test system: MDA-N
MCF7 breast = test system: MCF7 breast
CAKI-1 renal = test system: CAKI-1 renal
A498 renal = test system: A498 renal
SF-539 CNS = test system: SF-539 CNS
MDA-MB-435 = test system: MDA-MB-435
NCI-H226 lung = test system: NCI-H226 lung
TK-10 renal = test system: TK-10 renal
HCT-116 colon = test system: HCT-116 colon
KM12 colon = test system: KM12 colon
NCI-H23 lung = test system: NCI-H23 lung
SK-MEL-28 melanoma = test system: SK-MEL-28 melanoma
U251 CNS = test system: U251 CNS
M14 melanoma = test system: M14 melanoma
A549 NSCLC = test system: A549 NSCLC
SF-295 CNS = test system: SF-295 CNS
SK-OV-3 ovarian = test system: SK-OV-3 ovarian
SNB-19 CNS = test system: SNB-19 CNS
SK-MEL-5 melanoma = test system: SK-MEL-5 melanoma
COLO 205 colon = test system: COLO 205 colon
LOX IMVI melanoma = test system: LOX IMVI melanoma
HCT-15 colon = test system: HCT-15 colon
UACC-62 melanoma = test system: UACC-62 melanoma
HL-60(TB) leukemia = test system: HL-60(TB) leukemia
HCC-2998 colon = test system: HCC-2998 colon
SN12C renal = test system: SN12C renal
RXF 393 renal = test system: RXF 393 renal
T-47D breast = test system: T-47D breast
SW-620 colon = test system: SW-620 colon
OVCAR-8 ovarian = test system: OVCAR-8 ovarian
UO-31 renal = test system: UO-31 renal
SF-268 CNS = test system: SF-268 CNS
OVCAR-4 ovarian = test system: OVCAR-4 ovarian
NCI/ADR-RES ovarian = test system: NCI/ADR-RES ovarian
HOP-62 NSCLC = test system: HOP-62 NSCLC
SNB-75 CNS = test system: SNB-75 CNS
EKVX NSCLC = test system: EKVX NSCLC
OVCAR-5 ovarian = test system: OVCAR-5 ovarian
UACC-257 melanoma = test system: UACC-257 melanoma
786-0 renal = test system: 786-0 renal

Measured: TGI

CC(=O)/C(=C/n1ccc(=O)[nH]c1=S)C(=O)Nc1ccccc1C
> 100 µM: OVCAR-3 ovarian | NCI-H460 lung | MDA-MB-231 breast | SK-MEL-2 melanoma | HOP-92 NSCLC | BT-549 breast | HT29 colon | ACHN renal | IGROV1 ovarian | DU-145 prostate | MDA-N | MCF7 breast | CAKI-1 renal | A498 renal | SF-539 CNS | MDA-MB-435 | NCI-H226 lung | TK-10 renal | HCT-116 colon | KM12 colon | NCI-H23 lung | SK-MEL-28 melanoma | U251 CNS | M14 melanoma | A549 NSCLC | SF-295 CNS | SK-OV-3 ovarian | SNB-19 CNS | SK-MEL-5 melanoma | COLO 205 colon | LOX IMVI melanoma | HCT-15 colon | UACC-62 melanoma | HL-60(TB) leukemia | HCC-2998 colon | SN12C renal | RXF 393 renal | T-47D breast | SW-620 colon | OVCAR-8 ovarian | UO-31 renal | SF-268 CNS | OVCAR-4 ovarian | NCI/ADR-RES ovarian | HOP-62 NSCLC | SNB-75 CNS | EKVX NSCLC | OVCAR-5 ovarian | UACC-257 melanoma | 786-0 renal
